Test results reported in patent US7892840B2, “Media compositions for eluting compounds from matrices and methods for making and using them” (Medtronic MiniMed, Inc., priority 2008, dated 2011).
Like-named read-outs stand apart in the source and are kept apart here.

Key:
[1] = cited from earlier work
[2] = Elution of dexamethasone sodium phosphate from drug coated pace maker leads in conventional media; type: physicochemical; settings: e.g. a media that utilizes just a surfactant
Source text: The data disclosed in FIGS. 1-6 provides illustrative embodiments of the methods of invention that examine the elution of dexamethasone sodium phosphate from a polymeric silicone matrix. These examples provide an illustration of the power of the methodological embodiments of the invention, in particular in view of the fact that the elution of dexamethasone sodium phosphate from silicone polymer/drug coated pace maker leads is known to be minimal in conventional solvents. For example, certain elution media and methods may not be ideal for all drugs (e.g. dexamethasone sodium phosphate). For example, dexamethasone sodium phosphate is water soluble whereas typical methodologies described in the art are more suitable for water insoluble or sparingly soluble drugs. […]
While the methodological embodiments of the invention can be used to assess the elution of a wide variety of compounds from a wide variety of matrices, these methods of the invention are particularly useful in the context of the manufacture of drug eluting implantable medical devices. For example, the safety and efficacy of drug coated pace maker leads are readily evaluated using the unique dissolution methods and materials disclosed herein. […]

[3] = type: physicochemical
Experimental: To evaluate buffers with different pH, Dexamethasone sodium phosphate can be dissolved in an elution media (e.g. one of the different embodiments of the invention disclosed herein). […] This concentration was about 10 times the concentration that might be observed if the drug from the typical device was completely eluted in about 75 mL of media.

[4] = cited from earlier work; remark: listed apart in the source

| SMILES | miscibility in alcohols and ether ([1]; alcohols and ether) | solubility in water [1] | elution of the drug in conventional media systems [2] | stability with respect to pH (rank order) [3] | elution from silicone polymer/drug coated pace maker leads in conventional solvents [4] | solubility in water ([1]; in words) | solubility in water ([1]; in words, listed as dexamethasone sodium phosphate) |
| --- | --- | --- | --- | --- | --- | --- | --- |
| OCc1ccccc1 [Benzyl alcohol, Phenylmethanol] | completely miscible | 4 g/100 mL | – | – | – | – | – |
| C[C@@H]1C[C@H]2[C@@H]3CCC4=CC(=O)C=C[C@]4(C)[C@@]3(F)[C@@H](O)C[C@]2(C)[C@@]1(O)C(=O)COP(=O)(O)O [Dexamethasone sodium phosphate] | – | – | minimal | pH 4>pH 7.5>pH 9 | minimal | freely soluble in water | water soluble |
